Assays:
U1 cells = assay: Activation of HIV from latency in U1 cell line (p24 ELISA); type: cell-based; conditions: 48h
Method: U1 cells (tested negative for bacteria, mold, yeast, and mycoplasma) were obtained through the AIDS Reagent Program, Division of AIDS, NIAID, NIH from Dr. Thomas Folks. Cells and compound were seeded in a final 200 μL volume of RF10 media at a cell density of 20,000 cells/well in v-bottomed 96 well plates and incubated at 37°C for 48 hours. After incubation, cells were pelleted and supernatant harvested then diluted in a 2% Triton-x-100/phosphate buffered saline solution. The concentration of HIV p24 protein in the culture supernatant was quantified using the HIV p24 antigen enzyme linked immunosorbent assay (ELISA) kit (Beckman Coulter) according to the manufacturer’s instructions.

primary CD4+ T cells = assay: Induction of CD69 expression in primary CD4+ T cells; type: cell-based, human; conditions: 24h
Method: Primary human cells from HIV seronegative individuals were cultured in “RF10 medium” consisting of RPMI 1640 medium supplemented with 10% fetal bovine serum (FBS, Omega Scientific), 100 U/mL of penicillin, and 100 μg/mL of streptomycin (Invitrogen). PBMCs were isolated using Ficoll-Paque Plus separation (GE Healthcare). Primary CD4+ T cells were separated from PBMCs by negative immunomagnetic selection using the CD4+ T cell Isolation Kit (Miltenyi Biotec) according to the manufacturer’s instructions. Cells were then exposed to compound for 24 hours before staining and flow cytometric analysis of CD69 levels. Compound incubations were performed by seeding 10^5 cells/well in 100 μL of RF10 media containing the appropriate concentration of compound in wells of a v-bottomed 96-well plate. Bryostatin 1 (Tocris bioscience) and Prostratin (LC Laboratories) were obtained commercially, and bryologs or prostratin analogs were synthesized as previously described.
For human PBMC CD69 induction experiments, cells were stained with CD69-ECD (Beckman Coulter 6607110). During staining, cells were incubated at 4 °C for 20 minutes, washed with 2% FBS in PBS, and then resuspended in 2% paraformaldehyde. Stained samples were stored at 4 °C.
Flow cytometry samples were analyzed using a Cytomics FC 500 (Beckman Coulter) or a LSR Fortessa (BD Biosciences) flow cytometer. Data were analyzed using FlowJo (v7) software.

murine splenocytes = assay: In vivo bioactivity (CD69/CD25 in splenocytes) in C57/bl6 mice
Method: C57/bl6 mice were obtained from the UCLA Department of Radiation Oncology. Compounds were suspended in DMSO and then further diluted in RF10 media to produce a final volume of 500 μL (containing a maximum 4% DMSO). These 500 μL volumes were administered to mice by intraperitoneal injection. Mice were monitored for acute toxicities and then sacrificed at the indicated times. Spleens were removed and disaggregated using a steel mesh, and then filtered through a 40 μm filter to produce a single-cell suspension. The resultant splenocytes were then stained for flow cytometry to analyze surface expression of relevant markers.
During standard flow cytometry staining, samples of 10^5 cells were suspended in 50 μL of a 1:1 dilution of phosphate buffered saline (PBS):Human AB serum (Sigma). Staining of C57/bl6 mouse splenocytes was performed by adding the following anti-mouse fluorescent conjugated antibodies: CD3-Fluorescein isothiocyanate (FITC, eBioscience 11-0032-82); CD69-Phycoerythrin (PE, eBioscience 12-0691-83); and CD4-Allophycocyanin (APC, eBioscience 17-0041-83). In some experiments CD4-APC was replaced with CD25-APC (eBioscience 17-0251-82) and CD4-Phycoerythrin Cyanin 7 (PC7, eBioscience 25-0041-82). For humanized mouse studies, PBMC and splenocytes from BLT mice were stained with anti-mouse CD45-Alexa 700 (Biolegend 103128) and the following anti-human antibodies: CD45-e450 (eBioscience 48-0459-42); CD3-APC-780 (eBioscience; 47-0038-42); CD4-V500 (BD biosciences; 560768); CD8-Peridinin chlorophyll protein (PerCP)-710 (eBioscience 46-0087-42); CD25-PE (Beckman IM0479U); CD69-APC (Biolegend 310910); CD14-PE-Cy7 (Biolegend 325618). Cells were separately stained for anti-human CD45 e450- (eBioscience 48-0459-42) and anti-HA-Biotin PE (Roche 12158167001) followed by a secondary Streptavidin, R-Phycoerythrin Conjugate (Invitrogen s866) stain. This two-step stain was performed by incubating 1-2x10^6 cells at 4°C for 20–30 min, washing with 2% FBS in PBS, then adding the secondary stain, incubating again at 4°C for 20–30 min, and washing with 2% FBS in PBS before fixation with 2% paraformaldehyde. In some experiments, cell death was also evaluated by GHOST Red 780 (Tonbo Biosciences 13–0865) or Zombie Yellow (Biolegend 423104) stains. For this procedure, 10^6 cells were suspended in 100 μL PBS, and then the Zombie yellow and GHOST Red 780 dyes added. Cells were incubated for 20 min at room temperature in the dark and then washed twice with 2% FBS in PBS. Cells were then fixed with 2% paraformaldehyde and incubated for 20 min in the dark. In some experiments cells were then washed with 2% FBS in PBS, resuspended in 1:1 PBS:Human AB serum and then stained for human CD45 and HA, CD3-PE-Cy5 (Biolegend 300310), CD4-ECD (Beckman 6604727), CD8 Per-CO710 (eBioscience 46-0087-42) and CD3-APC (Cell signaling 9602S) as described above.

J-Lat 10.6 cell line = system: J-Lat 10.6 cell line; parameters: method as in PMID 22914190; conditions: cited from earlier work

C=C1C[C@H]2C[C@]3(O)O[C@H](C[C@@H](O)CC(=O)O[C@@H](CO)C[C@@H]4C/C(=C\C(=O)OC)[C@H](OC(=O)CCCCCCC)[C@@](O)(O4)C(C)(C)/C=C/[C@@H](C1)O2)C[C@H](OC(C)=O)C3(C)C [SUW133]
induction of latent virus (HIV p24 in supernatant) (U1 cells): induced significant levels of latent virus | CD69 expression (primary CD4+ T cells): upregulates expression | CD4+ splenocytes expressing CD69 (murine splenocytes; intraperitoneal injection, 24h post-injection, maximum over ascending doses): over 80% | lowest dose inducing CD69 expression (murine splenocytes; intraperitoneal injection, C57/bl6 mice): 1 µg | CD25 expression on CD3+ T cells in spleen (murine splenocytes; single injection of 10 μg): remained unchanged | CD69 expression on splenocytes, time course (murine splenocytes; single injection of 10 μg, up to day 9): transient expression of CD69 on the vast majority of murine splenocytes | induction of HIV from latency (J-Lat 10.6 cell line): effectively induced HIV from latency
